Measured values as given in US20200255436A1, “CORTICOTROPIN RELEASING FACTOR RECEPTOR ANTAGONISTS” (Spruce Biosciences, Inc., priority 2019, published 2020).
Where two headings read alike, the source gives them in different places.

Experiment: Study 1: single escalating oral dose pharmacokinetics, fed and fasted
Type: in vivo, human
Conditions: for Cmax / Tmax / AUC(0-inf) / AUC(0-t) / Vd/F / half-life: human, plasma, po; for AUC(0-t): read-out: AUC0-tlast
Description: Study 1 was the first-in-human study that investigated the safety, tolerability, and PK of single-escalating doses of Compound 1, given orally, to healthy adult subjects. […] The data from this study were used for the selection of doses for Study 2.
In Study 1, Compound 1 was administered to healthy adult subjects as a single PO dose of 2, 10, 50, 150, 400, or 800 mg in the fed state and 150 mg in the fasted state. Absorption occurred moderately late, achieving peak Cmax between 4 to 6 hours following dosing in the fed state.
When Compound 1 was given in the fed state, median time to reach maximum plasma concentration (Tmax) occurred between 4 and 6 hours.
As part of this single-dose escalation study, a food effect PK investigation was performed to examine Compound 1 exposures in both the fed and fasted states at the 150-mg dose level. A total of 6 subjects were administered 150 mg Compound 1 in each of these 2 dosing groups. Of these 6 subjects, 4 subjects received Compound 1 at the same dose in both fed and fasted states. […] Table 2 provides a summary of the PK parameters at the 150-mg dose level under both fed and fasted state conditions.
PK parameters AUC0-∞ and Cmax were analyzed separately for dose proportionality for Compound 1 from 50 to 800 mg when administered in the fed state. […] Dose proportionality across administered doses in the fed state could not be concluded on the basis of AUC0-∞ or Cmax.

[1] = 50 mg, 50 mg single oral dose, fed, geometric mean
[2] = 150 mg, 150 mg single oral dose, fasted, geometric mean
[3] = 150 mg, 150 mg single oral dose, fed, geometric mean
[4] = 400 mg, 400 mg single oral dose, fed, geometric mean
[5] = 800 mg, 800 mg single oral dose, fed, geometric mean

CL/F (50 mg single oral dose, fed, geometric mean): 302 L/h
CL/F (150 mg single oral dose, fasted, geometric mean): 454 L/h
CL/F (150 mg single oral dose, fed, geometric mean): 157 L/h
CL/F (400 mg single oral dose, fed, geometric mean): 155 L/h
CL/F (800 mg single oral dose, fed, geometric mean): 165 L/h
AUC0-∞ increase for every doubling of dose relative to dose proportionality (50 to 800 mg, fed state): 1.74 times
mean AUC0-∞, fed state relative to fasted state (150-mg single dose): approximately 3 fold
mean Cmax, fed state relative to fasted state (150-mg single dose): ~11 fold
Cmax (2 mg, 2 mg single oral dose, fed, geometric mean): 0.867 ng/mL
Tmax (2 mg, 2 mg single oral dose, fed, median, read-out: Tmax): 6 h
Cmax (10 mg, 10 mg single oral dose, fed, geometric mean): 3.01 ng/mL
Tmax (10 mg, 10 mg single oral dose, fed, median, read-out: Tmax): 4 h
AUC(0-inf) [1]: 165 ng·h/mL
Cmax [1]: 19.5 ng/mL
AUC(0-t) [1]: 152 ng·h/mL
Vd/F (50 mg, 50 mg single oral dose, fed, geometric mean, read-out: VSS/F): 8080 L
Vd/F (50 mg, 50 mg single oral dose, fed, geometric mean, read-out: VZ/F): 13500 L
half-life (50 mg, 50 mg single oral dose, fed, geometric mean, read-out: t1/2 (converted)): 31 h
Tmax (50 mg, 50 mg single oral dose, fed, median, read-out: Tmax): 4 h
AUC(0-inf) [2]: 331 ng·h/mL
Cmax [2]: 8.22 ng/mL
AUC(0-t) [2]: 288 ng·h/mL
Vd/F (150 mg, 150 mg single oral dose, fasted, geometric mean, read-out: VSS/F): 25200 L
Vd/F (150 mg, 150 mg single oral dose, fasted, geometric mean, read-out: VZ/F): 25100 L
half-life (150 mg, 150 mg single oral dose, fasted, geometric mean, read-out: t1/2 (converted)): 38.4 h
Tmax (150 mg, 150 mg single oral dose, fasted, median, read-out: Tmax): 10.1 h
AUC(0-inf) [3]: 956 ng·h/mL
Cmax [3]: 93.4 ng/mL
AUC(0-t) [3]: 891 ng·h/mL
Vd/F (150 mg, 150 mg single oral dose, fed, geometric mean, read-out: VSS/F): 4600 L
Vd/F (150 mg, 150 mg single oral dose, fed, geometric mean, read-out: VZ/F): 6620 L
half-life (150 mg, 150 mg single oral dose, fed, geometric mean, read-out: t1/2 (converted)): 29.2 h
Tmax (150 mg, 150 mg single oral dose, fed, median, read-out: Tmax): 4 h
AUC(0-inf) [4]: 2580 ng·h/mL
Cmax [4]: 207 ng/mL
AUC(0-t) [4]: 2300 ng·h/mL
Vd/F (400 mg, 400 mg single oral dose, fed, geometric mean, read-out: VSS/F): 6580 L
Vd/F (400 mg, 400 mg single oral dose, fed, geometric mean, read-out: VZ/F): 9890 L
half-life (400 mg, 400 mg single oral dose, fed, geometric mean, read-out: t1/2 (converted)): 44.2 h
Tmax (400 mg, 400 mg single oral dose, fed, median, read-out: Tmax): 4 h
AUC(0-inf) [5]: 4850 ng·h/mL
Cmax [5]: 382 ng/mL
AUC(0-t) [5]: 4390 ng·h/mL
Vd/F (800 mg, 800 mg single oral dose, fed, geometric mean, read-out: VSS/F): 6820 L
Vd/F (800 mg, 800 mg single oral dose, fed, geometric mean, read-out: VZ/F): 9970 L
half-life (800 mg, 800 mg single oral dose, fed, geometric mean, read-out: t1/2 (converted)): 41.9 h
Tmax (800 mg, 800 mg single oral dose, fed, median, read-out: Tmax): 6 h
half-life (after a single PO dose (fed and fasted state), across dose levels, read-out: Mean half-life (t1/2)): 31 to 44 h
Tmax (single oral doses 2-800 mg, fed state, read-out: median time to reach maximum plasma concentration (Tmax)): 4 to 6 h
Structure (SMILES): CCC(CC)c1cc(C)nc2c(-c3sc(N4CCOCC4)nc3Cl)c(C)nn12 [Compound 1, 4-(4-chloro-5-(2,5-dimethyl-7-(pentan-3-yl)pyrazolo[1,5-a]pyrimidin-3-yl)thiazol-2-yl)morpholine]
